Paper PMC6160999, “Pharmacokinetics, Tissue Distribution and Excretion of a Novel Diuretic (PU-48) in Rats” (Pharmaceutics, 2018)
Where two headings read alike, the source gives them in different places.

Test: Plasma pharmacokinetics after single oral PU-48 SNEDDS
Assay type: in vivo, rat
Conditions: for AUC(0-inf) / AUC(0-t) / Cmax / Tmax / t1/2 / half-life: rat plasma, n=6
Method: The method for quantification PU-48 in rat samples (plasma, thirteen tissues, urine and bile) has been developed and validated in our preliminary experiment. Briefly, PU-48 was quantitative analyzed by the liquid chromatography-electrospray ionization source-triple quadrupole tandem mass spectrometer (LC-MS/MS) system, which consisted of the Shimazdu LC-20AD pumpers (Shimadzu, Kyoto, Japan), a 20 μL loop and a SPD-M20A PDA detector. Chromatographic separation was accomplished on a Shimazdu Inertsil ODS-4 C18 column (2.1 × 100 mm, 3 µm, Shimadzu) and coupled to the API4000 mass spectrometer detector equipped with the Analyst 1.6 software (AB Sciex, Redwood City, CA, USA). The monitored ion transitions were mass-to-charge ratio (m/z) 289.1 → 229.2 for PU-48 and m/z 385.3 → 267.1 for the internal standard under positive mode. The mobile phase consisted of (A) water, and (B) acetonitrile, both containing 0.05% formic acid using the following gradient elution: 0–2 min (20% B), 2–8 min (20–100% B), 8–9.5 min (100% B), 9.5–13 min (20% B). Sample of 5 μL was injected. The quantification analysis of PU-48 in plasma, urine, bile and tissues (liver, muscle, and adipose tissue) were evaluated for specificity, linearity, precision, accuracy and recovery (See Supplementary Materials Tables S1–S3).
After fasting overnight with free drinking water (12 h before the experiment), eighteen rats were divided randomly into three groups, and blood samples at each time point were collected from six rats. The rats were given three doses of PU-48 (3, 6, or 12 mg/kg, respectively, 1.2 mg/mL in the SNEDDS formulation) by oral gavage. Blood samples (0.3 mL) were collected from the ophthalmic venous plexus at the predose, 0.25, 0.5, 1, 2, 4, 6, 8, 12, 24, 36, and 48 h post-dosing (total 12 time points) in heparinized tubes. The blood samples were centrifuged at 2500 rpm (1200× g) for 15 min and the plasma was stored at −20 °C until analysis.
The non-compartmental analysis method was used to calculate the pharmacokinetic parameters of PU-48 using Drug and Statistical Version 3.0 (DAS 3.0) software (the Mathematical Pharmacology Committee, Chinese Pharmacological Society, Beijing, China). The maximum peak concentration of the drug in plasma (Cmax) and the time to reach the maximum concentration (Tmax) were obtained directly from the experimental data. The area under the plasma concentration-time curves from 0 to infinity (i.e., AUC0–∞) and from 0 to the time of the last quantifiable concentration (AUC0–t) was calculated by the trapezoidal summation. The terminal elimination rate constant (Ke) was derived from the slope of the linear regression curve by fitting the natural logarithms of the terminal concentrations versus time. The terminal elimination half-life (t1/2) was calculated by 0.693/Ke. The data from the quality control (QC) samples were examined by a one-way analysis of variance (ANOVA). All values were expressed as mean ± SD (Standard Deviation).

[1] = plasma, rat, oral PU-48 SNEDDS 3 mg/kg
[2] = plasma, rat, oral PU-48 SNEDDS 6 mg/kg
[3] = plasma, rat, oral PU-48 SNEDDS 12 mg/kg

COC(=O)c1sc2nc3ccc(OC)cc3cc2c1N [PU-48, Methyl 3-amino-6-methoxythieno [2,3-b] quinoline-2-carboxylate]
concentration at 0.25 h [1]: 11.9 ± 15.5 ng/mL
concentration at 0.25 h [2]: 51.1 ± 51.2 ng/mL
concentration at 0.25 h [3]: 91.1 ± 52 ng/mL
concentration at 0.5 h [1]: 12.6 ± 11.1 ng/mL
concentration at 0.5 h [2]: 52.9 ± 46.8 ng/mL
concentration at 0.5 h [3]: 94.3 ± 49.6 ng/mL
concentration at 1 h [1]: 11.8 ± 11.2 ng/mL
concentration at 1 h [2]: 48.3 ± 32.8 ng/mL
concentration at 1 h [3]: 74.8 ± 36.1 ng/mL
concentration at 2 h [1]: 13.8 ± 16.6 ng/mL
concentration at 2 h [2]: 16.8 ± 10.1 ng/mL
concentration at 2 h [3]: 19.7 ± 4.2 ng/mL
concentration at 4 h [1]: 1.1 ± 0.7 ng/mL
concentration at 4 h [2]: 2.3 ± 1.2 ng/mL
concentration at 4 h [3]: 4.3 ± 3.1 ng/mL
concentration at 6 h [1]: 0.3 ± 0.2 ng/mL
concentration at 6 h [2]: 1.2 ± 0.5 ng/mL
concentration at 6 h [3]: 2.1 ± 0.8 ng/mL
concentration at 8 h [1]: 0.5 ± 0.9 ng/mL
concentration at 8 h [2]: 0.6 ± 0.4 ng/mL
concentration at 8 h [3]: 1.5 ± 0.5 ng/mL
concentration at 12 h [1]: 0.1 ± 0.1 ng/mL
concentration at 12 h [2]: 0.3 ± 0.2 ng/mL
concentration at 12 h [3]: 1.1 ± 0.8 ng/mL
concentration at 24 h [2]: 0.3 ± 0.3 ng/mL
concentration at 24 h [3]: 0.1 ng/mL
concentration at 36 h [2]: 0.2 ± 0.1 ng/mL
concentration at 36 h [3]: 0.8 ± 0.9 ng/mL
concentration at 48 h (plasma, 48 h, rat, oral PU-48 SNEDDS 12 mg/kg): 0.2 ng/mL
AUC(0-inf) (oral PU-48 SNEDDS 3 mg/kg): 60.5 ± 38.5 ng·h/mL
AUC(0-t) (oral PU-48 SNEDDS 3 mg/kg): 60 ± 38.3 ng·h/mL
Cmax (oral PU-48 SNEDDS 3 mg/kg): 12.6 ± 11.1 ng/mL
Tmax (oral PU-48 SNEDDS 3 mg/kg): 1.19 ± 0.94 h
t1/2 (oral PU-48 SNEDDS 3 mg/kg): 7.14 ± 2.93 h
AUC(0-inf) (oral PU-48 SNEDDS 6 mg/kg): 108 ± 52.5 ng·h/mL
AUC(0-t) (oral PU-48 SNEDDS 6 mg/kg): 107 ± 53 ng·h/mL
Cmax (oral PU-48 SNEDDS 6 mg/kg): 52.9 ± 46.8 ng/mL
Tmax (oral PU-48 SNEDDS 6 mg/kg): 0.63 ± 0.31 h
AUC(0-inf) (oral PU-48 SNEDDS 12 mg/kg): 181 ± 62.5 ng·h/mL
AUC(0-t) (oral PU-48 SNEDDS 12 mg/kg): 179 ± 60.1 ng·h/mL
Cmax (oral PU-48 SNEDDS 12 mg/kg): 94.3 ± 49.6 ng/mL
t1/2 (oral PU-48 SNEDDS 12 mg/kg): 6.87 ± 3.49 h
Mean plasma concentration at the 48 h time point (rat, oral 3, 6 and 12 mg/kg, LLOQ 0.1 ng/mL): below the lower limit of quantitation (LLOQ)
half-life (rat, plasma, po, 3 mg/kg, oral PU-48 SNEDDS 3 mg/kg): 7.1 ± 2.9 h
Tmax (rat, plasma, po, 3 mg/kg, oral PU-48 SNEDDS 3 mg/kg, read-out: Tmax): 1.2 ± 0.9 h
half-life (rat, plasma, po, 6 mg/kg, oral PU-48 SNEDDS 6 mg/kg): 7 ± 2.7 h
Tmax (rat, plasma, po, 6 mg/kg, oral PU-48 SNEDDS 6 mg/kg, read-out: Tmax): 0.6 ± 0.3 h
half-life (rat, plasma, po, 12 mg/kg, oral PU-48 SNEDDS 12 mg/kg): 6.9 ± 3.5 h
Tmax (rat, plasma, po, 12 mg/kg, oral PU-48 SNEDDS 12 mg/kg, read-out: Tmax): 0.5 ± 0.27 h
